Key:
Assay type in all cases: functional
[1] = tested on: HCT-116; assay: Induction of cell cycle arrest in human HCT-116 cells assessed as accumulation of cells at G0/G1 phase at 0.1 uM incubated for 24 hrs by flow cytometric analysis (reference value: 90.2 %)
[2] = tested on: HepG2; assay: Induction of apoptosis in human HepG2 cells assessed as late apoptotic cells at 0.1 uM incubated for 24 hrs by Annexin V-FITC/PI staining based flow cytometric analysis (reference value: 2.05 %)
[3] = tested on: N2a; assay: Induction of cell cycle arrest in mouse Neuro2a cells assessed as accumulation of cells at G2/M phase at 0.1 uM incubated for 24 hrs by flow cytometric analysis (reference value: 8.0 %)
[4] = tested on: HepG2; assay: Induction of cell cycle arrest in human HepG2 cells assessed as accumulation of cells at G0/G1 phase at 0.1 uM incubated for 24 hrs by flow cytometric analysis (reference value: 66.4 %)
[5] = tested on: HCT-116; assay: Induction of cell cycle arrest in human HCT-116 cells assessed as accumulation of cells at G2/M phase at 0.1 uM incubated for 24 hrs by flow cytometric analysis (reference value: 30.6 %)
[6] = tested on: N2a; assay: Induction of apoptosis in mouse Neuro2a cells assessed as necrotic cells at 1 uM incubated for 24 hrs by Annexin V-FITC/PI staining based analysis (reference value: 4.33 %)
[7] = tested on: HCT-116; assay: Induction of apoptosis in human HCT-116 cells assessed as viable cells at 1 uM incubated for 24 hrs by Annexin V-FITC/PI staining based flow cytometric analysis (reference value: 90.50 %); conditions: read-out: Activity
[8] = tested on: N2a; assay: Induction of cell cycle arrest in mouse Neuro2a cells assessed as accumulation of cells at S phase at 0.1 uM incubated for 24 hrs by flow cytometric analysis (reference value: 30.5 %)
[9] = tested on: HepG2; assay: Induction of cell cycle arrest in human HepG2 cells assessed as accumulation of cells at S phase at 0.1 uM incubated for 24 hrs by flow cytometric analysis (reference value: 27.8 %)
[10] = tested on: HepG2; assay: Induction of apoptosis in human HepG2 cells assessed as fold increase in early apoptotic cells at 1 uM incubated for 24 hrs by Annexin V-FITC/PI staining based flow cytometric analysis
[11] = tested on: HepG2; assay: Induction of apoptosis in human HepG2 cells assessed as early apoptotic cells at 1 uM incubated for 24 hrs by Annexin V-FITC/PI staining based flow cytometric analysis (reference value: 4.85 %)
[12] = tested on: N2a; assay: Induction of apoptosis in mouse Neuro2a cells assessed as viable cells at 1 uM incubated for 24 hrs by Annexin V-FITC/PI staining based analysis (reference value: 91.70 %); conditions: read-out: Activity
[13] = tested on: N2a; assay: Induction of apoptosis in mouse Neuro2a cells assessed as fold increase in early apoptotic cells at 1 uM incubated for 24 hrs by Annexin V-FITC/PI staining based analysis
[14] = tested on: HepG2; assay: Induction of apoptosis in human HepG2 cells assessed as early apoptotic cells at 0.1 uM incubated for 24 hrs by Annexin V-FITC/PI staining based flow cytometric analysis (reference value: 4.85 %)
[15] = tested on: HepG2; assay: Induction of apoptosis in human HepG2 cells assessed as viable cells at 1 uM incubated for 24 hrs by Annexin V-FITC/PI staining based flow cytometric analysis (reference value: 90.08 %); conditions: read-out: Activity
[16] = tested on: N2a; assay: Induction of apoptosis in mouse Neuro2a cells assessed as early apoptotic cells at 1 uM incubated for 24 hrs by Annexin V-FITC/PI staining based analysis (reference value: 3.17 %)
[17] = tested on: N2a; assay: Induction of apoptosis in mouse Neuro2a cells assessed as necrotic cells at 0.1 uM incubated for 24 hrs by Annexin V-FITC/PI staining based analysis (reference value: 4.33 %)
[18] = tested on: HCT-116; assay: Induction of apoptosis in human HCT-116 cells assessed as viable cells at 0.1 uM incubated for 24 hrs by Annexin V-FITC/PI staining based flow cytometric analysis (reference value: 90.50 %); conditions: read-out: Activity
[19] = tested on: HepG2; assay: Induction of apoptosis in human HepG2 cells assessed as necrotic cells at 0.1 uM incubated for 24 hrs by Annexin V-FITC/PI staining based flow cytometric analysis (reference value: 3.02 %)
[20] = tested on: N2a; assay: Induction of cell cycle arrest in mouse Neuro2a cells assessed as accumulation of cells at G2/M phase at 1 uM incubated for 24 hrs by flow cytometric analysis (reference value: 8.0 %)
[21] = tested on: HCT-116; assay: Induction of apoptosis in human HCT-116 cells assessed as late apoptotic cells at 0.1 uM incubated for 24 hrs by Annexin V-FITC/PI staining based flow cytometric analysis (reference value: 6.15 %)
[22] = tested on: HepG2; assay: Induction of apoptosis in human HepG2 cells assessed as necrotic cells at 1 uM incubated for 24 hrs by Annexin V-FITC/PI staining based flow cytometric analysis (reference value: 3.02 %)
[23] = tested on: N2a; assay: Induction of apoptosis in mouse Neuro2a cells assessed as late apoptotic cells at 0.1 uM incubated for 24 hrs by Annexin V-FITC/PI staining based analysis (reference value: 0.81 %)
[24] = tested on: HepG2; assay: Induction of cell cycle arrest in human HepG2 cells assessed as accumulation of cells at G2/M phase at 0.1 uM incubated for 24 hrs by flow cytometric analysis (reference value: 6.7 %)
[25] = tested on: HCT-116; assay: Induction of cell cycle arrest in human HCT-116 cells assessed as accumulation of cells at S phase at 0.1 uM incubated for 24 hrs by flow cytometric analysis (reference value: 19.2 %)
[26] = tested on: HepG2; assay: Induction of cell cycle arrest in human HepG2 cells assessed as accumulation of cells at S phase at 1 uM incubated for 24 hrs by flow cytometric analysis (reference value: 27.8 %)
[27] = tested on: N2a; assay: Induction of cell cycle arrest in mouse Neuro2a cells assessed as accumulation of cells at G0/G1 phase at 0.1 uM incubated for 24 hrs by flow cytometric analysis (reference value: 61.5 %)
[28] = tested on: HepG2; assay: Induction of apoptosis in human HepG2 cells assessed as viable cells at 0.1 uM incubated for 24 hrs by Annexin V-FITC/PI staining based flow cytometric analysis (reference value: 90.08 %); conditions: read-out: Activity
[29] = tested on: HCT-116; assay: Induction of cell cycle arrest in human HCT-116 cells assessed as accumulation of cells at G2/M phase at 1 uM incubated for 24 hrs by flow cytometric analysis (reference value: 30.6 %)
[30] = tested on: HCT-116; assay: Induction of apoptosis in human HCT-116 cells assessed as late apoptotic cells at 1 uM incubated for 24 hrs by Annexin V-FITC/PI staining based flow cytometric analysis (reference value: 6.15 %)
[31] = tested on: HCT-116; assay: Induction of apoptosis in human HCT-116 cells assessed as fold increase in late apoptotic cells at 1 uM incubated for 24 hrs by Annexin V-FITC/PI staining based analysis
[32] = tested on: HCT-116; assay: Induction of apoptosis in human HCT-116 cells assessed as necrotic cells at 0.1 uM incubated for 24 hrs by Annexin V-FITC/PI staining based flow cytometric analysis (reference value: 1.45 %)
[33] = tested on: N2a; assay: Induction of apoptosis in mouse Neuro2a cells assessed as early apoptotic cells at 0.1 uM incubated for 24 hrs by Annexin V-FITC/PI staining based analysis (reference value: 3.17 %)
[34] = tested on: N2a; assay: Induction of cell cycle arrest in mouse Neuro2a cells assessed as accumulation of cells at S phase at 1 uM incubated for 24 hrs by flow cytometric analysis (reference value: 30.5 %)
[35] = tested on: N2a; assay: Induction of apoptosis in mouse Neuro2a cells assessed as fold increase in late apoptotic cells at 1 uM incubated for 24 hrs by Annexin V-FITC/PI staining based analysis
[36] = tested on: N2a; assay: Induction of cell cycle arrest in mouse Neuro2a cells assessed as accumulation of cells at G0/G1 phase at 1 uM incubated for 24 hrs by flow cytometric analysis (reference value: 61.5 %)
[37] = tested on: HepG2; assay: Induction of cell cycle arrest in human HepG2 cells assessed as accumulation of cells at G2/M phase at 1 uM incubated for 24 hrs by flow cytometric analysis (reference value: 27.8 %)
[38] = tested on: N2a; assay: Induction of apoptosis in mouse Neuro2a cells assessed as viable cells at 0.1 uM incubated for 24 hrs by Annexin V-FITC/PI staining based analysis (reference value: 91.70 %); conditions: read-out: Activity
[39] = tested on: HCT-116; assay: Induction of apoptosis in human HCT-116 cells assessed as early apoptotic cells at 0.1 uM incubated for 24 hrs by Annexin V-FITC/PI staining based flow cytometric analysis (reference value: 1.90 %)
[40] = tested on: HepG2; assay: Induction of cell cycle arrest in human HepG2 cells assessed as accumulation of cells at G0/G1 phase at 1 uM incubated for 24 hrs by flow cytometric analysis (reference value: 66.4 %)
[41] = tested on: HCT-116; assay: Induction of cell cycle arrest in human HCT-116 cells assessed as accumulation of cells at S phase at 1 uM incubated for 24 hrs by flow cytometric analysis (reference value: 19.2 %)
[42] = tested on: HCT-116; assay: Induction of cell cycle arrest in human HCT-116 cells assessed as accumulation of cells at G0/G1 phase at 1 uM incubated for 24 hrs by flow cytometric analysis (reference value: 90.2 %)
[43] = tested on: HCT-116; assay: Induction of apoptosis in human HCT-116 cells assessed as fold increase in early apoptotic cells at 1 uM incubated for 24 hrs by Annexin V-FITC/PI staining based analysis
[44] = tested on: HCT-116; assay: Induction of apoptosis in human HCT-116 cells assessed as necrotic cells at 1 uM incubated for 24 hrs by Annexin V-FITC/PI staining based flow cytometric analysis (reference value: 1.45 %)
[45] = tested on: HepG2; assay: Induction of apoptosis in human HepG2 cells assessed as late apoptotic cells at 1 uM incubated for 24 hrs by Annexin V-FITC/PI staining based flow cytometric analysis (reference value: 2.05 %)
[46] = tested on: N2a; assay: Induction of apoptosis in mouse Neuro2a cells assessed as late apoptotic cells at 1 uM incubated for 24 hrs by Annexin V-FITC/PI staining based analysis (reference value: 0.81 %)
[47] = tested on: HepG2; assay: Induction of apoptosis in human HepG2 cells assessed as fold increase in late apoptotic cells at 1 uM incubated for 24 hrs by Annexin V-FITC/PI staining based flow cytometric analysis
[48] = tested on: HCT-116; assay: Induction of apoptosis in human HCT-116 cells assessed as early apoptotic cells at 1 uM incubated for 24 hrs by Annexin V-FITC/PI staining based flow cytometric analysis (reference value: 1.90 %)

`C=C1[C@@H](O)[C@@H]2O[C@]3(CC[C@H](/C=C/[C@@H](C)[C@@H]4CC(C)=C[C@@]5(O[C@H](C[C@@](C)(O)C(=O)O)CC[C@H]5O)O4)O3)CC[C@H]2O[C@@H]1[C@@H](O)C[C@H](C)[C@H]1O[C@@]2(CCCCO2)CC[C@H]1C` [OKADAIC ACID] was tested. Which Activity [1] did it give?
The Activity was 32.2%.

What about the Activity [2] of the same molecule?
Its Activity is 24.73%.

And the Activity [3]?
Its Activity is 13%.

What about the Activity [4] of the same molecule?
The Activity was 48.5%.

And the Activity [5]?
Its Activity is 44.6%.

And the Activity [6]?
The Activity was 0.57%.

And the viability at 1 µM [7]?
Its viability at 1 µM is 59.7%.

What about the Activity [8] of the same molecule?
Its Activity is 56.6%.

What about the Activity [9] of the same molecule?
The Activity was 36.8%.

What about the “fold change (FC)” value [10] of the same molecule?
Its value is 4.9.

What about the Activity [11] of the same molecule?
The Activity was 23.72%.

And the viability at 1 µM [12]?
Its viability at 1 µM is 59.7%.

What about the “fold change (FC)” value [13] of the same molecule?
The value was 9.2.

And the Activity [14]?
Its Activity is 13.5%.

And the viability at 1 µM [15]?
The viability at 1 µM was 50.9%.

And the Activity [16]?
The Activity was 29.01%.

What about the Activity [17] of the same molecule?
The Activity was 4.9%.

And the viability at 0.1 µM [18]?
The viability at 0.1 µM was 79.2%.

What about the Activity [19] of the same molecule?
Its Activity is 9.05%.

And the Activity [20]?
Its Activity is 8.1%.

And the Activity [21]?
Its Activity is 7.55%.

And the Activity [22]?
The Activity was 2.92%.

And the Activity [23]?
Its Activity is 7.75%.

What about the Activity [24] of the same molecule?
Its Activity is 14.6%.

What about the Activity [25] of the same molecule?
The Activity was 23%.

And the Activity [26]?
The Activity was 37.2%.

And the Activity [27]?
The Activity was 30.4%.

What about the viability at 0.1 µM [28] of the same molecule?
The viability at 0.1 µM was 52.7%.

What about the Activity [29] of the same molecule?
Its Activity is 20.4%.

And the Activity [30]?
The Activity was 16.9%.

What about the “fold change (FC)” value [31] of the same molecule?
The value was 2.8.

And the Activity [32]?
Its Activity is 12.45%.

What about the Activity [33] of the same molecule?
Its Activity is 10.91%.

What about the Activity [34] of the same molecule?
Its Activity is 55%.

And the “fold change (FC)” value [35]?
Its value is 13.2.

And the Activity [36]?
Its Activity is 36%.

What about the Activity [37] of the same molecule?
The Activity was 13.3%.

What about the viability at 0.1 µM [38] of the same molecule?
Its viability at 0.1 µM is 76.4%.

And the Activity [39]?
The Activity was 0.8%.

And the Activity [40]?
Its Activity is 49.5%.

And the Activity [41]?
Its Activity is 23.9%.

And the Activity [42]?
The Activity was 55.5%.

And the “fold change (FC)” value [43]?
The value was 1.9.

What about the Activity [44] of the same molecule?
The Activity was 19.75%.

What about the Activity [45] of the same molecule?
Its Activity is 22.44%.

What about the Activity [46] of the same molecule?
Its Activity is 10.7%.

What about the “fold change (FC)” value [47] of the same molecule?
The value was 11.

And the Activity [48]?
The Activity was 3.65%.
